The values below come from US7906491B2 (Univisitair Medisch Centrum Utrecht, priority 2002, dated 2011).

The structures appear in SMILES notation.

Format in all cases: cell-based
For one assay, the system named is CREB. As to the kind of experiment: CREB phosphorylation (read-out for PKA) in NIH3T3-A14-Epac1 cells. The settings on record: 15 min, 8-Br-cAMP 1 mM. The method, then: (§1) Upper panel: NIH3T3-A14-Epac1 cells were treated for 15 min with 8-Br-cAMP, and cell lysates were analyzed for activation of Rap1 and phosphorylation of CREB. Lower panel: NIH3T3-A14-Epac1 cells were treated in duplicate for 15 min with increasing concentrations of 8-pCPT-2′-O-Me-cAMP. Cells were lysed and equal amounts of cell lysate were incubated with precoupled GST-RalGDSRBD and Rap1 was assayed by immunoblotting with Rap1 antibody.
(§2) Therefore, 8-CPT-2′-O-Me-cAMP was tested in NIH3T3-A14-Epac1 cells for the activation of Epac, using Rap1 as a read-out, and of PKA, using phosphorylation of the common PKA substrate CREB 29 as a read-out.
Antibodies against phosphorylated CREB (directed against phosphorylated Serl33) were obtained from Cell Signalling (Beverly, Mass., USA), and antibodies against K-Rev/Rap1 and polyclonal anti-HA were obtained from Santa Cruz Biotechnology (Santa Cruz, Calif., USA). The following inhibitors and stimuli were used at concentrations indicated, unless stated otherwise: RGD peptide (100 μM) and H-89 (10 μM) was obtained from Biomol Research Laboratories Inc. (Plymouth Meeting, Pa., USA). 8-Br-cAMP (1 mM) was obtained from BIOLOG Life Science Institute (Bremen, Germany). TPA (12-O-tetradecanoylphorbol-13-acetate) was obtained from Sigma (Steinheim, Germany) and was used at a concentration of 100 ng/ml. […]

The subject of assay [1] is Rap1. As to the kind of experiment: Rap1 activation assay (read-out for Epac) in NIH3T3-A14-Epac1 cells. The settings on record: 15 min, 8-Br-cAMP 1 mM. The protocol: as §1, §2
NIH3T3-A14 cells, stably expressing Epac1, were grown in DMEM with 10% fetal calf serum and 2 μg/ml puromycin. NIH-OVCAR3 (Ovcar3) cells were maintained in RPMI with 10% fetal calf serum. Transient transfection of Ovcar3 cells was performed using the FuGENE 6 transfection reagent (Roche Diagnostics, Mannheim, Germany) according to the manufacturer's procedures, using 6 μg total DNA including a CMV-luciferase plasmid (0.2 μg).
Rap activation assays were performed as described previously (16-18). Briefly, cells were lysed in lysis buffer containing 10% glycerol, 1% Nonidet P-40, 50 mM Tris-Cl pH7.5, 200 mM NaCl, 2mM MgCl2, 1 μM leupeptin, 0.1 μM aprotinin, 5 mM NaF, 1 mM NaVO3. Lysates were clarified by centrifugation and incubated with GST-tagged RalGDS-RBD pre-coupled to glutathione beads to specifically pull down the GTP-bound forms of Rap1. Samples were incubated for 1 hr at 4° C. while tumbling. Beads were washed four times in lysis buffer, and the remaining fluid was removed with an insulin syringe. Proteins were eluted with Laemmli sample buffer and analyzed by sodium dodecyl sulphate (SDS)-polyacrylamide gel electrophoresis and Western blotting using Rap1 antibodies. As a control, Rap1 levels in whole cell lysates were determined.

Assay [2] concerns Rap1. As to the kind of experiment: Rap1 activation assay in Ovcar3 cells. The settings on record: H-89 10 μM, FIG. 7C. The method, then:
(§3) A: 8-pCPT-2′-O-Me-cAMP stimulates cell adhesion. Upper panel: quantification of Ovcar3 cells adhering to fibronectin after treatment with increasing concentrations of 8-pCPT-2′-O-Me-cAMP. Lower panel: Ovcar3 cells were treated with increasing concentrations of 8-pCPT-2′-O-Me-cAMP for 15 min, cells were lysed and analyzed for activation of Rap1 (upper blot) and CREB (lower blot). Total Rap1 levels are shown (middle blot). B: 8-pCPT-2′-O-Me-cAMP increases the rate of cell adhesion. Upper panel: quantification of Ovcar3 cells adhering to fibronectin at various time points. Lower panel: cells were treated with 60 μM 8-pCPT-2′-O-Me-cAMP for the indicated times. Cell lysates were analyzed for activation of Rap1 (upper blot) and CREB (lower blot). Total levels of Rap1 in cell lysates are shown (middle blot). C: Ovcar3 cells were either pre-incubated at 37° C. for 30 min with the PKA inhibitor H-89 (10 μM) 30 min prior to seeding onto the wells (‘Short’) or H-89 was added 30 min prior to trypsinization and during the recovery period (‘Long’) and seeded onto wells in the absence or presence of 8-pCPT-2′-O-Me-cAMP (100 μM). Cells were allowed to adhere for 1 h. D, cAMP-induced adhesion to fibronectin is blocked by inhibitors of Rap1. Left panel: Ovcar3 cells were transiently transfected with either mock DNA, increasing concentrations of HA-Rap1GAP II (0.5, 1, 2 or 6 μg, respectively), HA-Rap1GAPI (6 μg) or HA-RBD of RalGDS (6 μg), respectively. Cells were treated with 8-Br-cAMP or 8-pCPT-2′-O-Me-cAMP and adhesion to fibronectin was determined. Right upper panel: luciferase counts of total input cells per well in the above experiment are shown. Right lower panel: expression of HA-Rap1GAPs in the above experiment is shown.
Rap activation assays were performed as described previously (16-18). […] Proteins were eluted with Laemmli sample buffer and analyzed by sodium dodecyl sulphate (SDS)-polyacrylamide gel electrophoresis and Western blotting using Rap1 antibodies. As a control, Rap1 levels in whole cell lysates were determined.

Another assay has as its system Ovcar3 cells. As to the kind of experiment: Adhesion assay of Ovcar3 cells to fibronectin. The settings on record: H-89 10 μM, 8-pCPT-2′-O-Me-cAMP 100 μM, FIG. 7C. The protocol:
as §3, with “Right upper panel: luciferase counts of total input cells per well in the above experiment are shown. Right lower panel: expression of HA-Rap1GAPs in the above experiment is shown.” left out
In functional assays, 8-pCPT-2′-O-Me-cAMP appeared to induce integrin-mediated cell adhesion through Epac and Rap1. […] The cells were seeded onto fibronectin-coated plates in the presence or absence of 8-pCPT-2′-O-Me-cAMP and the amount of cells that adhered after a certain period of time was quantified. […]
24-well plates were coated overnight with 2 μg/ml fibronectin (Sigma, St. Louis, Mo., USA) in sodium bicarbonate buffer (Sigma, St. Louis, Mo., USA). […] Cells were centrifuged, counted and resuspended at 3×10^5 cells/ml in serum-free RPMI with 0.5% BSA. […]

Take `Nc1ncnc2c1nc(Br)n2[C@@H]1O[C@@H]2COP(=O)(O)O[C@H]2[C@H]1O` [Compound 8-Br-cAMP, 8-Br-cAMP, reference compound]: in the assay on CREB, the “phosphorylation of CREB” value is “induced both the activation of Rap1 and the phosphorylation of CREB”. Moreover, the “activation of Rap1” value with Rap1 [1] is on record as “induced both the activation of Rap1”.
With `O=S(=O)(NCCNC/C=C/c1ccc(Br)cc1)c1cccc2cnccc12` [Compound H-89, H-89, reference compound], the “effect on 8-pCPT-2′-O-Me-cAMP activation of Rap1” value in the assay on Rap1 [2] is “insensitive”. Further, in the assay with Ovcar3 cells, the “effect on 8-pCPT-2′-O-Me-cAMP induction of adhesion” value is on record as “insensitive”.
